In patent US12286443B2, “Bycyclic JAK inhibitors and uses thereof” (Insilico Medicine IP Limited, priority 2019, dated 2025):

Target: T1, JAK1 (Homo sapiens, UniProt P23458)
T1 construct: purchased Invitrogen PV4775
Experiment: Inhibition of JAK1 kinase, LANCE Ultra TR-FRET assay
Type: biochemical
Details: 2 nM JAK1, 2x ATP 76 μM, 15 min pre-incubation, 90 min reaction, 23° C.
Method: (§1) Exemplary compounds were assayed to determine potency in inhibiting activity of JAK1-3 and TYK2 kinases by determining IC50 values.
(§2) The sources of test materials and equipment are as follows: JAK1 (Invitrogen, Cat. No PV4775), JAK2 (Invitrogen, Cat. No PV4210), JAK3 (Invitrogen, Cat. No PV4080), TYK2 (Invitrogen, Cat. No PR8440C), ATP (Sigma, Cat. No. A7699-1G), DMSO (Sigma, Cat. No. D2650), DTT (Sigma, Cat. No. 43815), 384 wells_compound plate (Greiner, Cat. No. 781280), 384 wells_assay plate (Perkin Elmer, Cat. No. 6007299), LANCE Ultra ULight™-JAK-1 peptide (Perkin Elmer, Cat. No. TRF0121), LANCET™ Eu-W1024 Anti-phosphotyrosine (PT66) (Perkin Elmer, Cat. No. AD0069), LANCET™ Detection Buffer(Perkin Elmer, Cat. No. CR97-100).
(§3) The concentrations of test compounds varied from 100 μM to 1.7 nM with 3-fold dilution, 11 points, in duplicates while the concentrations of the reference compound, Tofacitinib, varied from 1 μM to 0.017 nM with 3-fold dilution, 11 points, in duplicates.
(§4) The assay buffer contained 50 mM HEPES (pH 7.5), 0.01% Brij-35, 10 mM MgCl2, 1 mM EDTA, 2 mM DTT. Incubations were carried out at 23° C.
(§5) Prior to the assay, enzyme, peptide substrate and serially diluted test compounds were pre-incubated together in assay buffer (5 μL) for 15 minutes (peptide substrate concentration: 50 nM; JAK enzyme concentrations: 2 nM JAK1; […]; […] and 4 nM TYK2). And the assay was initiated by the addition of 5 μL assay buffer containing 2× final ATP concentration (these are the 2×ATP concentrations: 76 μM JAK1; 24 μM JAK2; 8 μM JAK3 and 30 μM TYK2). Following the 90-minute incubation, antibody conjugated with Eu is dissolved in detection buffer to add into wells and then incubated for 60 minutes. The 10 μL detection buffer contains EDTA to stop the enzymatic reaction. The plate is analyzed by Perkin Elmer Envision on TR-FRET mode. The high ratio of 665/615 represents no inhibition of kinase reaction while the low ratio of 665/615 represents complete inhibition of kinase reaction.
(§6) Curves are fit by XLFIT5 as inhibition rate % vs. log [compound concentration] using 4 parameters logistic model 205.
(§7) In the table, “A” indicates an IC50 of less than 100 nM, “B” indicates an IC50 range from 100 nM to 500 nM; “C” indicates an IC50 range from 500 nM to 2 μM; and “D” indicates an IC50 greater than 2 μM. Also, “na” indicates data is not available.

T1 sequence (P23458 whole entry): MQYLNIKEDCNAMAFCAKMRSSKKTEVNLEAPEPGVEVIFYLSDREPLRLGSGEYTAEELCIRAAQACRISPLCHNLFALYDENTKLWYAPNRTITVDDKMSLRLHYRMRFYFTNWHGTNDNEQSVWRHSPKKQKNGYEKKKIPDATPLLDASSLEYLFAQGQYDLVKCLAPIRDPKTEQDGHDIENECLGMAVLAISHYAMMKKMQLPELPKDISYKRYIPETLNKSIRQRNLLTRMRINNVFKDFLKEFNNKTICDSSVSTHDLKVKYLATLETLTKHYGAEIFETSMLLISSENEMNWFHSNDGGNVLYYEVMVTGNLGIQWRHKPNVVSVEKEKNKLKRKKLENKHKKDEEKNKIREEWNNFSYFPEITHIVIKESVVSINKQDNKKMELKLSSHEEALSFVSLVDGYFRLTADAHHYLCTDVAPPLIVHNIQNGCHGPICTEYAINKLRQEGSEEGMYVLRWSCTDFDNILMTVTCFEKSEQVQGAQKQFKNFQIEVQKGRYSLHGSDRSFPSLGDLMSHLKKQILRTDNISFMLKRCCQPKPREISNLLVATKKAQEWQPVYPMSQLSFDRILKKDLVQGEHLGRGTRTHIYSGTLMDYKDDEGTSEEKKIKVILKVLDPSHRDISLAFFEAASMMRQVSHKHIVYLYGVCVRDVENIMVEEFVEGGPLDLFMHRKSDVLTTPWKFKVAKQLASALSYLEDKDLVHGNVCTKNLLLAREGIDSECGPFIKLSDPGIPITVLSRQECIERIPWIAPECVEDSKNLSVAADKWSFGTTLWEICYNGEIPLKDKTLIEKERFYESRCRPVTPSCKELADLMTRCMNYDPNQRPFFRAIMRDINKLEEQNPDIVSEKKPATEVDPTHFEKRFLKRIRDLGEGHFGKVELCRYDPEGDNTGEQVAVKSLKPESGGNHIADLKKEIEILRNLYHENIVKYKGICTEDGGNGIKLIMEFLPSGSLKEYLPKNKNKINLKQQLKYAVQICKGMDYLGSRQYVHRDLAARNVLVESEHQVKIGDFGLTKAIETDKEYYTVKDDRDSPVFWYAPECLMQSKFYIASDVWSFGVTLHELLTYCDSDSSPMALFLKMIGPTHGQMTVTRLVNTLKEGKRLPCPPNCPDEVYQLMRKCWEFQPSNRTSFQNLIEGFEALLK

Compared with `O=C(NCCC1CC(F)(F)C1)c1noc2c1CN(c1ncnc3[nH]ccc13)CC2` [Compound 148], `O=C(NCCC1(O)CC(F)(F)C1)c1noc2c1CN(c1ncnc3[nH]ccc13)CC2` [Compound 149] is higher in IC50: 100 to 500 nM for the first, 500 to 2000 nM for the second.

First: O=C(NCC1CCC1O)c1noc2c1CN(c1ncnc3[nH]ccc13)CC2 (centres unmarked) [Compound 150]
Second: O=C(NCCN1CCC1)c1noc2c1CN(c1ncnc3[nH]ccc13)CC2 [Compound 152]
The IC50 of the first is lower: 100 to 500 nM for the first, > 2000 nM for the second. The first is the more potent here.

Compared with `O=C(NCC(CO)C(F)(F)F)c1noc2c1CN(c1ncnc3[nH]ccc13)CC2` (centres unmarked) [Compound 151], `O=C(NCCCC(F)(F)F)c1noc2c1CN(c1ncnc3[nH]ccc13)CC2` [Compound 154] is higher in IC50: < 100 nM for the first, 100 to 500 nM for the second.

`O=C(NCCc1ccccn1)c1noc2c1CN(c1ncnc3[nH]ccc13)CC2` [Compound 153] and `CN1CCCC1CCNC(=O)c1noc2c1CN(c1ncnc3[nH]ccc13)CC2` (centres unmarked) [Compound 155] fall in the same range of IC50: 500 to 2000 nM for the first, 500 to 2000 nM for the second.

Target: T2, TYK2 (Homo sapiens, UniProt P29597)
T2 construct: purchased Invitrogen PR8440C
Experiment: Inhibition of TYK2 kinase, LANCE Ultra TR-FRET assay
Type: biochemical
Details: 4 nM TYK2, 2x ATP 30 μM, 15 min pre-incubation, 90 min reaction, 23° C., read-out: tyk IC50
Method: as §1, §2, §3, §4, §5, §6, §7

T2 sequence (P29597 whole entry): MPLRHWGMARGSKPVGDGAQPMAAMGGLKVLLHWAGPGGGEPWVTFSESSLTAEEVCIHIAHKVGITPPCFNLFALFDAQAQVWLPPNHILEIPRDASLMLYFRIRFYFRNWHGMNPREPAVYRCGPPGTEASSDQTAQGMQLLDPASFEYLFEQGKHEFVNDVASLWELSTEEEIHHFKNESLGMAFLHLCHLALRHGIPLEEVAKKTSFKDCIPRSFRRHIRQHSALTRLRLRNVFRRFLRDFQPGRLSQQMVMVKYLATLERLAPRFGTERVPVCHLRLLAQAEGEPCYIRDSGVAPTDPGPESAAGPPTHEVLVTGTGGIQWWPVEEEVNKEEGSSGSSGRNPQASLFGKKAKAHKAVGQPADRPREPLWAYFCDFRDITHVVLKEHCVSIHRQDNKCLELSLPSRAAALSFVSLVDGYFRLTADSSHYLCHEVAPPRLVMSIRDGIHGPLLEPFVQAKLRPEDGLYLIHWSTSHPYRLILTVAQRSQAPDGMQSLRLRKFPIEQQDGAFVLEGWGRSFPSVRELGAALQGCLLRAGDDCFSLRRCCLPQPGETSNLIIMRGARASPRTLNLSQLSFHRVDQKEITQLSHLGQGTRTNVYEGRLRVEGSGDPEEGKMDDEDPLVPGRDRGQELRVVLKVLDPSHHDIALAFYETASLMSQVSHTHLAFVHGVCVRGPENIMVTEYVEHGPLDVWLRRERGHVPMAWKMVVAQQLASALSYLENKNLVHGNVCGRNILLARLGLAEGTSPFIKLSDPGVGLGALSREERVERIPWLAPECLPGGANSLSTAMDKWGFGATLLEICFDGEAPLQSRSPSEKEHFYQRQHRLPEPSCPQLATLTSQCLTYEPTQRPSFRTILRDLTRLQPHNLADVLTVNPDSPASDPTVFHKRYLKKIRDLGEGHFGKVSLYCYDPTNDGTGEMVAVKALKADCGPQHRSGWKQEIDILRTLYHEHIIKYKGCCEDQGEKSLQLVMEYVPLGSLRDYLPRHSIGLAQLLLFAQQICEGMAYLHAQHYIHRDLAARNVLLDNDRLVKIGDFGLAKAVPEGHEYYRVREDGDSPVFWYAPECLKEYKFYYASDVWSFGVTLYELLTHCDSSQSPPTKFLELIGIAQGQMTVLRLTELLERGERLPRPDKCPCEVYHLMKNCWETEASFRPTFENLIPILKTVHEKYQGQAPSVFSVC

`O=C(NCCC1CC(F)(F)C1)c1noc2c1CN(c1ncnc3[nH]ccc13)CC2` [Compound 148] and `O=C(NCCC1(O)CC(F)(F)C1)c1noc2c1CN(c1ncnc3[nH]ccc13)CC2` [Compound 149] cannot be ordered by IC50: > 2000 nM for the first, > 2000 nM for the second.

`O=C(NCC1CCC1O)c1noc2c1CN(c1ncnc3[nH]ccc13)CC2` (centres unmarked) [Compound 150] and `O=C(NCCN1CCC1)c1noc2c1CN(c1ncnc3[nH]ccc13)CC2` [Compound 152] cannot be ordered by IC50: > 2000 nM for the first, > 2000 nM for the second.

First: O=C(NCC(CO)C(F)(F)F)c1noc2c1CN(c1ncnc3[nH]ccc13)CC2 (centres unmarked) [Compound 151]
Second: O=C(NCCCC(F)(F)F)c1noc2c1CN(c1ncnc3[nH]ccc13)CC2 [Compound 154]
The IC50 of the first is lower: 500 to 2000 nM for the first, > 2000 nM for the second. The first is the more potent here.

`O=C(NCCc1ccccn1)c1noc2c1CN(c1ncnc3[nH]ccc13)CC2` [Compound 153] and `CN1CCCC1CCNC(=O)c1noc2c1CN(c1ncnc3[nH]ccc13)CC2` (centres unmarked) [Compound 155] cannot be ordered by IC50: > 2000 nM for the first, > 2000 nM for the second.

Target: T3, JAK2 (Homo sapiens, UniProt O60674)
T3 construct: purchased Invitrogen PV4210
Experiment: Inhibition of JAK2 kinase, LANCE Ultra TR-FRET assay
Type: biochemical
Details: 2x ATP 24 μM, 15 min pre-incubation, 90 min reaction, 23° C.
Method: as §1, §2, §3, §4, §5, §6, §7

T3 sequence (O60674 whole entry): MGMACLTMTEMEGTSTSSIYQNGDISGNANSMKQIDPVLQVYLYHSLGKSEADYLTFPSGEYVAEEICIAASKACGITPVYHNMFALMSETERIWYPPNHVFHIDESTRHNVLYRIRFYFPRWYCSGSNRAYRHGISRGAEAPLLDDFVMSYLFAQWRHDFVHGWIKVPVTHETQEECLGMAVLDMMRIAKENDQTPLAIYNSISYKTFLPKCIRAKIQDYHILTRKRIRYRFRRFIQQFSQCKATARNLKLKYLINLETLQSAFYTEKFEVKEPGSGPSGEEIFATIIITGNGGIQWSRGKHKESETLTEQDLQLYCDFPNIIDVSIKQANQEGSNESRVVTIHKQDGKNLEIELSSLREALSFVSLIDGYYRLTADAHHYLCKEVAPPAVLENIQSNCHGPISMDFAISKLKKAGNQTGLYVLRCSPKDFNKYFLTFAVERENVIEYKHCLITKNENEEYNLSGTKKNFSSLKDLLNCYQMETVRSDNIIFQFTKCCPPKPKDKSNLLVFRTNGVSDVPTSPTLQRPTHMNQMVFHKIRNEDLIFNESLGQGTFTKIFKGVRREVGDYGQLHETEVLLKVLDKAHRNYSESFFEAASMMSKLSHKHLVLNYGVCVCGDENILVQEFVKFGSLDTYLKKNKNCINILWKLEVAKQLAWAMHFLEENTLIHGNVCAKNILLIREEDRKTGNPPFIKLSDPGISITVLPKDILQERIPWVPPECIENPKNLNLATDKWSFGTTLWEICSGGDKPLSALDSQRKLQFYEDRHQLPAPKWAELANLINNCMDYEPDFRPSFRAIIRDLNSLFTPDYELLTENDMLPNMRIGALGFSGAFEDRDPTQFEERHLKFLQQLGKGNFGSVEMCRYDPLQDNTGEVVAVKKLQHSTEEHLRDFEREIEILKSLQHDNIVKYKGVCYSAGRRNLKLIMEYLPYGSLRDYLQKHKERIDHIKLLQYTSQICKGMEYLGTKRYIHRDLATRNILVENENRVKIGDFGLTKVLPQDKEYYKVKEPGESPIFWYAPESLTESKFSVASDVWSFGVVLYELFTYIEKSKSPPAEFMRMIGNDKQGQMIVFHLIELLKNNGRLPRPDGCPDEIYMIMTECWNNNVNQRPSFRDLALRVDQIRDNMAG

`O=C(NCCC1CC(F)(F)C1)c1noc2c1CN(c1ncnc3[nH]ccc13)CC2` [Compound 148] and `O=C(NCCC1(O)CC(F)(F)C1)c1noc2c1CN(c1ncnc3[nH]ccc13)CC2` [Compound 149] fall in the same range of IC50: 500 to 2000 nM for the first, 500 to 2000 nM for the second.

First: O=C(NCC1CCC1O)c1noc2c1CN(c1ncnc3[nH]ccc13)CC2 (centres unmarked) [Compound 150]
Second: O=C(NCCN1CCC1)c1noc2c1CN(c1ncnc3[nH]ccc13)CC2 [Compound 152]
The IC50 of the first is lower: 100 to 500 nM for the first, > 2000 nM for the second. The first is the more potent here.

First: O=C(NCC(CO)C(F)(F)F)c1noc2c1CN(c1ncnc3[nH]ccc13)CC2 (centres unmarked) [Compound 151]
Second: O=C(NCCCC(F)(F)F)c1noc2c1CN(c1ncnc3[nH]ccc13)CC2 [Compound 154]
The IC50 of the first is lower: < 100 nM for the first, 100 to 500 nM for the second.

`O=C(NCCc1ccccn1)c1noc2c1CN(c1ncnc3[nH]ccc13)CC2` [Compound 153] and `CN1CCCC1CCNC(=O)c1noc2c1CN(c1ncnc3[nH]ccc13)CC2` (centres unmarked) [Compound 155] fall in the same range of IC50: 500 to 2000 nM for the first, 500 to 2000 nM for the second.

Target: T4, JAK3 (Homo sapiens, UniProt P52333)
T4 construct: purchased Invitrogen PV4080
T4 sequence (P52333 1-1124): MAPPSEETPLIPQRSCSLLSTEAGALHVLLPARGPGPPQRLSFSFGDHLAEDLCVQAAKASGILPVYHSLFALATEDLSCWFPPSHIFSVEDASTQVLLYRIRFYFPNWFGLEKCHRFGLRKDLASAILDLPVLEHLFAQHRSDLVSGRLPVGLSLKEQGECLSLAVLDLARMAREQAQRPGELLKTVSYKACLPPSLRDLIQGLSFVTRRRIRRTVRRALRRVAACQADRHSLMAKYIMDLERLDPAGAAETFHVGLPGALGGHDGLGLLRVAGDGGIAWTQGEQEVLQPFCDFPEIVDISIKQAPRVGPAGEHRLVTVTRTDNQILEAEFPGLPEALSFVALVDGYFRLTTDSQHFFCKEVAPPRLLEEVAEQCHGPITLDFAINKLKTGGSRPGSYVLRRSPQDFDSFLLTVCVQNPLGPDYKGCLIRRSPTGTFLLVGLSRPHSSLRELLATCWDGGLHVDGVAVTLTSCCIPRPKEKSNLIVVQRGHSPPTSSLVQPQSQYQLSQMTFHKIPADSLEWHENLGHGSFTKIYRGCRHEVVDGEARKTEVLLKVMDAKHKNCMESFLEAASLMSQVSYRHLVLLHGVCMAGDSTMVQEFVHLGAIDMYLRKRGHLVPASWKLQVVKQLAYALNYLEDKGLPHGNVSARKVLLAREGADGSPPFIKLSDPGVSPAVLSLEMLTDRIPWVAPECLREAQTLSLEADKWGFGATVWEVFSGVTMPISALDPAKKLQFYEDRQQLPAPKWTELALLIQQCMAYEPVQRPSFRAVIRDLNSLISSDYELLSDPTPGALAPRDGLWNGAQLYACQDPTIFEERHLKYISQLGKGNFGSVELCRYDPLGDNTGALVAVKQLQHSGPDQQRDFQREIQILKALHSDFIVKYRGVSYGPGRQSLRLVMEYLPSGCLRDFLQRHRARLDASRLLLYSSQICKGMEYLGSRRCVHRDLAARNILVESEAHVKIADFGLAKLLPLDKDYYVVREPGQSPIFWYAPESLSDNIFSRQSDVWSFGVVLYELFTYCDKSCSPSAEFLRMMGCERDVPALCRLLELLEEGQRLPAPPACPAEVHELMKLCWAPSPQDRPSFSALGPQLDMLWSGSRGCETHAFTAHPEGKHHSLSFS
Experiment: Inhibition of JAK3 kinase, LANCE Ultra TR-FRET assay
Type: biochemical
Details: 2x ATP 8 μM, 15 min pre-incubation, 90 min reaction, 23° C.
Method: as §1, §2, §3, §4, §5, §6, §7

`O=C(NCCC1CC(F)(F)C1)c1noc2c1CN(c1ncnc3[nH]ccc13)CC2` [Compound 148] and `O=C(NCCC1(O)CC(F)(F)C1)c1noc2c1CN(c1ncnc3[nH]ccc13)CC2` [Compound 149] fall in the same range of IC50: 100 to 500 nM for the first, 100 to 500 nM for the second.

Going from `O=C(NCC1CCC1O)c1noc2c1CN(c1ncnc3[nH]ccc13)CC2` (centres unmarked) [Compound 150] to `O=C(NCCN1CCC1)c1noc2c1CN(c1ncnc3[nH]ccc13)CC2` [Compound 152], the IC50 rises from < 100 nM to > 2000 nM.

`O=C(NCC(CO)C(F)(F)F)c1noc2c1CN(c1ncnc3[nH]ccc13)CC2` (centres unmarked) [Compound 151] and `O=C(NCCCC(F)(F)F)c1noc2c1CN(c1ncnc3[nH]ccc13)CC2` [Compound 154] cannot be ordered by IC50: < 100 nM for the first, < 100 nM for the second.

First: O=C(NCCc1ccccn1)c1noc2c1CN(c1ncnc3[nH]ccc13)CC2 [Compound 153]
Second: CN1CCCC1CCNC(=O)c1noc2c1CN(c1ncnc3[nH]ccc13)CC2 (centres unmarked) [Compound 155]
The IC50 of the first is lower: 100 to 500 nM for the first, 500 to 2000 nM for the second. The first is the more potent here.
